How the values were obtained:
[1] = tested on: Staphylococcus aureus; assay: Antibacterial activity against methicillin-resistant Staphylococcus aureus 330041 assessed as inhibition of bacterial growth incubated for 16 to 18 hrs by CLSI based two-fold serial dilution method; type: functional; details: time 16-18 hrs
[2] = tested on: Pseudomonas aeruginosa; assay: Antibacterial activity against Pseudomonas aeruginosa 535 assessed as inhibition of bacterial growth incubated for 16 to 18 hrs by CLSI based two-fold serial dilution method; type: functional; details: time 16-18 hrs
[3] = tested on: Acinetobacter baumannii; assay: Antibacterial activity against Acinetobacter baumannii 1309 assessed as inhibition of bacterial growth incubated for 16 to 18 hrs by CLSI based two-fold serial dilution method; type: functional; details: time 16-18 hrs
[4] = Cytotoxicity against human L02 cells assessed as inhibition of cell growth incubated for 24 hrs by MTT assay; type: toxicity, cell-based
[5] = tested on: Staphylococcus aureus; assay: Antibacterial activity against methicillin-resistant Staphylococcus aureus 3390 assessed as inhibition of bacterial growth incubated for 16 to 18 hrs by CLSI based two-fold serial dilution method; type: functional; details: time 16-18 hrs
[6] = tested on: Pseudomonas aeruginosa; assay: Antibacterial activity against Pseudomonas aeruginosa 408 assessed as inhibition of bacterial growth incubated for 16 to 18 hrs by CLSI based two-fold serial dilution method; type: functional; details: time 16-18 hrs
[7] = tested on: Acinetobacter baumannii; assay: Antibacterial activity against Acinetobacter baumannii 1310 assessed as inhibition of bacterial growth incubated for 16 to 18 hrs by CLSI based two-fold serial dilution method; type: functional; details: time 16-18 hrs
[8] = tested on: Staphylococcus aureus; assay: Antibacterial activity against methicillin-resistant Staphylococcus aureus USA300 assessed as inhibition of bacterial growth incubated for 16 to 18 hrs by CLSI based two-fold serial dilution method; type: functional; details: time 16-18 hrs
[9] = tested on: Staphylococcus aureus; assay: Antibacterial activity against methicillin-resistant Staphylococcus aureus 3392 assessed as inhibition of bacterial growth incubated for 16 to 18 hrs by CLSI based two-fold serial dilution method; type: functional; details: time 16-18 hrs

SMILES | MIC [1] [µg/mL] | MIC [2] [µg/mL] | MIC [3] [µg/mL] | IC50 at 24 h [4] [µg/mL] | MIC [5] [µg/mL] | MIC [6] [µg/mL] | MIC [7] [µg/mL] | MIC [8] [µg/mL] | MIC [9] [µg/mL]
O=C(O)CCCCCCCCC[P+](c1ccc(Cl)cc1)(c1ccc(Cl)cc1)c1ccc(Cl)cc1.[Br-] | > 64 | > 64 | > 64 | 30.8 | > 64 | > 64 | > 64 | > 64 | > 64
Cc1ccc([P+](CCCCCCCCCC(=O)O)(c2ccc(C)cc2)c2ccc(C)cc2)cc1.[Br-] | > 64 | > 64 | > 64 | 23.1 | > 64 | > 64 | > 64 | > 64 | > 64
Br.O=C(CCCC[P+](c1ccccc1)(c1ccccc1)c1ccccc1)OC[C@H](NC(=O)C(Cl)Cl)[C@H](O)c1ccc([N+](=O)[O-])cc1 | 16 | > 64 | > 64 | > 64 | 8 | > 64 | > 64 | 8 | 8
O=C(O)CCCCCCCCCCC[P+](c1ccccc1)(c1ccccc1)c1ccccc1.[Br-] | > 64 | > 64 | > 64 | > 64 | > 64 | > 64 | > 64 | > 64 | > 64
Br.O=C(CCCCCCCCCCC[P+](c1ccccc1)(c1ccccc1)c1ccccc1)OC[C@H](NC(=O)C(Cl)Cl)[C@H](O)c1ccc([N+](=O)[O-])cc1 | 2 | > 64 | > 64 | 16.5 | 2 | > 64 | > 64 | 2 | 2
COc1ccc([P+](CCCCCCCCCC(=O)O)(c2ccc(OC)cc2)c2ccc(OC)cc2)cc1.[Br-] | 32 | > 64 | 64 | 13.5 | 16 | > 64 | 64 | 32 | 32
Br.O=C(CCCCCCCCC[P+](c1cccc(F)c1)(c1cccc(F)c1)c1cccc(F)c1)OC[C@H](NC(=O)C(Cl)Cl)[C@H](O)c1ccc([N+](=O)[O-])cc1 | 1 | > 64 | > 64 | 28.7 | 1 | > 64 | > 64 | 1 | 1
Br.O=C(CC[P+](c1ccccc1)(c1ccccc1)c1ccccc1)OC[C@H](NC(=O)C(Cl)Cl)[C@H](O)c1ccc([N+](=O)[O-])cc1 | > 64 | > 64 | > 64 | > 64 | > 64 | > 64 | > 64 | > 64 | > 64
Br.O=C(CCCCCn1cc(C[P+](c2ccc(F)cc2)(c2ccc(F)cc2)c2ccc(F)cc2)nn1)OC[C@H](NC(=O)C(Cl)Cl)[C@H](O)c1ccc([N+](=O)[O-])cc1 | 16 | > 64 | > 64 | > 64 | 16 | > 64 | > 64 | 16 | 16
O=C(O)CCCCCCCCCCCCCCCCC[P+](c1ccccc1)(c1ccccc1)c1ccccc1.[Br-] | > 64 | > 64 | > 64 | > 64 | > 64 | > 64 | > 64 | > 64 | > 64
Br.O=C(CCCCCCCCCCCCCCCCC[P+](c1ccccc1)(c1ccccc1)c1ccccc1)OC[C@H](NC(=O)C(Cl)Cl)[C@H](O)c1ccc([N+](=O)[O-])cc1 | 2 | > 64 | > 64 | 7.9 | 2 | > 64 | > 64 | 2 | 2
O=C(O)c1cn(C2CC2)c2cc(N3CCNCC3)c(F)cc2c1=O [CIPROFLOXACIN] |  |  |  | > 64 |  |  |  |  | 
